Measurements from patent publication US7893197B2, “Relaxin-3 chimeric polypeptides and their preparation and use” (Janssen Pharmaceutica N.V., priority 2005, dated 2011).
Ends that are not written are not given here.

Assays:
[1] = system: [125I]-R3/I5 binding sites (GPCR135) in rat brain; experiment: Quantitative receptor autoradiography, inhibition of [125I]-R3/I5 binding on rat brain sections; conditions: 7 pM [125I]-R3/I5; all regions investigated
Procedure: (§1) Rats were asphyxiated by carbon dioxide. Brains were immediately removed from the skull and rapidly frozen in dry-ice. Twenty-micron-thick frontal sections were cut using a Cryostat-microtome (Microm HM505E, Mikron, San Diego, Calif.) and thaw-mounted on adhesive microscope slides (Superfrost^+ Plus, VWR). The sections were kept at −70° C. until use. The sectioning protocol for the regional distribution study included series of coronal sections covering the entire brain.
Sections were thawed and dried under a cold air stream and then pre-incubated for 15 min. at room temperature in incubation buffer (20 mM HEPES, pH 7.4, 120 mM NaCl2, 0.22 mM KH2PO4, 1.3 mM CaCl2, 0.8 mM MgSO4) by immersing sections in a 400 ml jar. Sections were dried again under a cold air stream and incubated for 60 min. with 7 pM [^125I]-R3/I5 (specific activity, 2200 Ci/mmole) in incubation buffer containing 0.5% BSA and protease inhibitor cocktail. […] Nonspecific binding was determined in the presence of 100 nM of human R3. After incubation, the excess radioligand was washed off by immersing the slides in the jar containing incubation buffer at 4° C. (3 times 10 min.) followed by a quick immersion in water. Sections were dried and exposed to Fujifilm Imaging plates (BAS-MS 2025) for 48 hrs. […]

[2] = system: GPCR135 binding sites in rat brain; experiment: Receptor autoradiography, distribution of [125I]R3/I5 binding sites in rat brain; parameters: key: −: not detected; +: low density; ++: moderate density; +++: high density; conditions: 7 pM, n = 3
Chain of GPCR135 binding sites in rat brain (as listed by the source): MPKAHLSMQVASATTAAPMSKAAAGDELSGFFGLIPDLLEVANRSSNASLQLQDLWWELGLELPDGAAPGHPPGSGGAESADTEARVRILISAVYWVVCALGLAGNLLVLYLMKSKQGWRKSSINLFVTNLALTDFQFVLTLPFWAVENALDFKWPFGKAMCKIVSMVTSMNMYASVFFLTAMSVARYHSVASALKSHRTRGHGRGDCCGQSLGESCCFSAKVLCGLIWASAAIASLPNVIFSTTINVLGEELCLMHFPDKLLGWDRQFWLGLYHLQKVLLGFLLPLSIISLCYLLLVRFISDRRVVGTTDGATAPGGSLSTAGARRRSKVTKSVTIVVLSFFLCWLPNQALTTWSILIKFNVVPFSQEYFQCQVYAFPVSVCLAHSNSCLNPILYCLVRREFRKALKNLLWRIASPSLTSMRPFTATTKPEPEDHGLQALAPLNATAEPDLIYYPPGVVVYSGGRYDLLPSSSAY
Procedure: as §1
Sections were thawed and dried under a cold air stream and then pre-incubated for 15 min. at room temperature in incubation buffer (20 mM HEPES, pH 7.4, 120 mM NaCl2, 0.22 mM KH2PO4, 1.3 mM CaCl2, 0.8 mM MgSO4) by immersing sections in a 400 ml jar. Sections were dried again under a cold air stream and incubated for 60 min. with 7 pM [^125I]-R3/I5 (specific activity, 2200 Ci/mmole) in incubation buffer containing 0.5% BSA and protease inhibitor cocktail. […] Nonspecific binding was determined in the presence of 100 nM of human R3. After incubation, the excess radioligand was washed off by immersing the slides in the jar containing incubation buffer at 4° C. (3 times 10 min.) followed by a quick immersion in water. Sections were dried and exposed to Fujifilm Imaging plates (BAS-MS 2025) for 48 hrs. The imaging plates were scanned using the Fuji Bio-Imaging Analyzer System (BAS-5000, Fuji Medical System, CT) and visualized using ImageGauge V3.12 software (Fuji Medical System, CT).
Cresyl-violet staining was performed on adjacent sections and the regions were identified using the rat brain atlas of Paxinos and Watson (Paxinos et al., 1998, The Rat Brain in Stereotaxic Coordinates, New York, Academic Press (publisher)). For illustration purposes, sections were exposed to autoradiography film ((Kodak Omat AR, Rochester N.Y.). After a 4-week exposure, they were automatically developed and fixed in a Konica SRY-101A machine (Konica Medical Corp., Wayne N.J.). Adobe Photoshop 7.0 and Illustrator 9.0 were used for preparation of the figures.

[3] = biological target: T1, GPCR135 (Homo sapiens, UniProt Q9NSD7); experiment: Binding of radioligands to COS-7 cells transfected with GPCR135
T1 construct: expressed in transfected cells
T1 sequence (Q9NSD7 1-469): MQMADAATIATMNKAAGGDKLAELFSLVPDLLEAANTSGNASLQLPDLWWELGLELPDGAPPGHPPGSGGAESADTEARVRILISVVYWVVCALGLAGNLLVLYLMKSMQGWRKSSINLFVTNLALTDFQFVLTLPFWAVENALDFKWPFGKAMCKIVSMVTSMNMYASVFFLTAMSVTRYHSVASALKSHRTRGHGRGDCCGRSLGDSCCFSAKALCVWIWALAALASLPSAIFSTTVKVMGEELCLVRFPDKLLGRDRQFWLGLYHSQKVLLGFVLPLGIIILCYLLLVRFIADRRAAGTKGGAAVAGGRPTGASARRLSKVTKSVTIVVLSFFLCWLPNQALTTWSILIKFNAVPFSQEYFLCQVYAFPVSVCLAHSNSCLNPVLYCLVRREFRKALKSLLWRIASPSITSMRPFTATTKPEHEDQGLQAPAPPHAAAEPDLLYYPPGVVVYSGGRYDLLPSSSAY
Procedure: (§2) FIGS. 5A-5D illustrate a comparative analysis of the binding specificities of [^125I]-relaxin-3 and [^125I]-R3/I5 for GPCR135 and LGR7. COS-7 cells in 6-well culture dishes were transfected with human GPCR135 and LGR7, respectively. Mock transfected COS-7 cells were used as the negative controls. [^125I]-relaxin-3 (FIG. 5A) or [^125I]-R3/I5 (FIG. 5B) was added to cells at a final concentration of 100 pM either in the absence or presence of 1 uM of unlabeled relaxin-3 to determine total binding and non-specific binding, respectively. FIG. 5C depicts an autoradiogram of [^125]-relaxin-3 binding in rat brain sagittal section. FIG. 5D depicts an autoradiogram of non-specific binding of [^125]-relaxin-3 as determined in the presence of 100 nM of unlabeled relaxin-3. FIG. 5E depicts an autoradiogram of [^125]-R3/I5 binding in rat brain sagittal section. […] binding of [^125]-R3/I5 as determined in the presence of 100 nM of unlabeled relaxin-3.

[4] = biological target: T2, LGR7 (Homo sapiens, UniProt Q9HBX9); experiment: Binding of radioligands to COS-7 cells transfected with LGR7; conditions: radioligand 100 pM
T2 construct: Human LGR7 cDNA containing the complete coding region was PCR amplified; expressed in transfected cells
T2 sequence (Q9HBX9 1-757): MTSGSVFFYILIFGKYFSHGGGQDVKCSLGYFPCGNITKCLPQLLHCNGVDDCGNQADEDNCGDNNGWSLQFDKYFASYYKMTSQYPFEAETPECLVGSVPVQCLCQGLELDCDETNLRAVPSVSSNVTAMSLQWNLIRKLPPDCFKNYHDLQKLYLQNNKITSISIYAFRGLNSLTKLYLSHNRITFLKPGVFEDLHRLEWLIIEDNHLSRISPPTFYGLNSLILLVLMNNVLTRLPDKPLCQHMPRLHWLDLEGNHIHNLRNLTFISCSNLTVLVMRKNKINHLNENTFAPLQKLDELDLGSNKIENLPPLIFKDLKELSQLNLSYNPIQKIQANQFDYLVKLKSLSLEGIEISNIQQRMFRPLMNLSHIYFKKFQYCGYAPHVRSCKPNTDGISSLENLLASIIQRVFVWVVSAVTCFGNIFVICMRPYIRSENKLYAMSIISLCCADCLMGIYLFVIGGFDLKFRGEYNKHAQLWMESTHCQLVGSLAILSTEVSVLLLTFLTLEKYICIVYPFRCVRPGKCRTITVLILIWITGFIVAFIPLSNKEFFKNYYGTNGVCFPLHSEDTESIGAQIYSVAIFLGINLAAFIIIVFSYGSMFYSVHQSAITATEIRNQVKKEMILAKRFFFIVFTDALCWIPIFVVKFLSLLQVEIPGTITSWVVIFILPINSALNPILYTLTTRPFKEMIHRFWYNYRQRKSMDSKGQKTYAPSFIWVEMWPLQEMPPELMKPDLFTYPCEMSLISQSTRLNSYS
Procedure: as §2

Chain of [125I]-R3/I5 binding sites (GPCR135) in rat brain (as listed by the source): as the sequence (as listed by the source) above

## Relaxin: human relaxin (R1) used as competitor in Example 6 (KWKDDVIKLCGRELVRAQIAICGMSTWSRPYVALFEKCCLIGCTKRSLAKYC)
[1]
  displacement of [125I]-R3/I5 binding sites, in words: did not displace any significant amount of [^125I]-R3/I5 binding sites at concentrations of up to 100 nM

## [^125I]-R3/I5: radioiodinated R3/I5 chimera used as tracer (RAAPYGVRLCGREFIRAVIFTCGGSRWQDLQTLCCTDGCSMTDLSALC; ends and bridges not checked; also: radioiodinated (125I), site not given here)
[2]; Amygdaloid body: Amygdalohippocampal area
  [125I]R3/I5 binding sites, density: +++
[2]; Amygdaloid body: Bed nucleus stria terminalis
  [125I]R3/I5 binding sites, density: ++
[2]; Amygdaloid body: Central nucleus
  [125I]R3/I5 binding sites, density: ++
[2]; Amygdaloid body: Lateral nucleus
  [125I]R3/I5 binding sites, density: ++
[2]; Amygdaloid body: Medial nucleus
  [125I]R3/I5 binding sites, density: ++
[2]; Brain stem: Dorsal raphe, dorsal part
  [125I]R3/I5 binding sites, density: +
[2]; Brain stem: Inferior colliculus
  [125I]R3/I5 binding sites, density: ++
[2]; Brain stem: Interpeduncular nucleus
  [125I]R3/I5 binding sites, density: +++
[2]; Brain stem: Nucleus incertus
  [125I]R3/I5 binding sites, density: ++
[2]; Brain stem: Periaqueductal gray area
  [125I]R3/I5 binding sites, density: ++
[2]; Brain stem: Spinal trigeminal tract
  [125I]R3/I5 binding sites, density: ++
[2]; Brain stem: Superior colliculus
  [125I]R3/I5 binding sites, density: +++
[2]; Cortex: Motor
  [125I]R3/I5 binding sites, density: ++
[2]; Cortex: Piriform
  [125I]R3/I5 binding sites, density: ++
[2]; Cortex: Somatosensory
  [125I]R3/I5 binding sites, density: ++
[2]; Cortex: Temporal
  [125I]R3/I5 binding sites, density: ++
[2]; Cortex: Visual
  [125I]R3/I5 binding sites, density: ++
[2]; Habenula: Medial
  [125I]R3/I5 binding sites, density: ++
[2]; Hippocampal formation: CAB field
  [125I]R3/I5 binding sites, density: +
[2]; Hippocampal formation: Dentate gyrus
  [125I]R3/I5 binding sites, density: +
[2]; Hypothalamus: Lateral nucleus
  [125I]R3/I5 binding sites, density: −
[2]; Hypothalamus: Paraventricular nucleus
  [125I]R3/I5 binding sites, density: ++
[2]; Hypothalamus: Supraoptic nucleus
  [125I]R3/I5 binding sites, density: ++
[2]; Olfactory System: Anterior olfactory nucleus
  [125I]R3/I5 binding sites, density: +++
[2]; Olfactory System: Olfactory bulb
  [125I]R3/I5 binding sites, density: +++
[2]; Septal region: Lateral
  [125I]R3/I5 binding sites, density: +
[2]; Thalamus: Centro lateral
  [125I]R3/I5 binding sites, density: ++
[2]; Thalamus: Centro medial
  [125I]R3/I5 binding sites, density: ++
[2]; Thalamus: Paraventricular
  [125I]R3/I5 binding sites, density: ++
[3]; in presence of 1 uM unlabeled relaxin-3
  non-specific binding, in words: lower non-specific binding than [^125I]-relaxin-3
[3]; radioligand 100 pM
  binding to GPCR135 expressing cells, in words: high affinity
[4]
  binding to LGR7, in words: did not demonstrate significant binding to LGR7
